Results taken from US20110257110A1, “Composition comprising a glycoside of a mono- or diacylglycerol compound and an oil rich in n-3 polyunsaturated fatty acids, a method of producing the composition and use of the composition” (HYBEN VITAL LICENS APS, priority 2008, published 2011).

Tests used:
[1] = aqueous solutions as described in WO03/43613, storage; cited from earlier work
[2] = tested on: human peripheral blood leukocytes; test: chemiluminescence of peripheral blood leukocytes (oxidative burst response); assay type: cell-based; conditions: fairly low concentrations
Text: Chemiluminescence is a measure of oxidative burst response. […] As the actual tissue damage caused by inflammatory cells such as PMN's and monocytes/macrophages, through the release of proteolytic and hydrolytic enzymes as well as toxic reactive oxygen radicals are activated in the tissue and joints, the isolated compound should be a potent inhibitor of the oxidative burst response of the human peripheral blood polymorphonuclear leukocytes, the most important and abundant inflammatory cells. It is therefore believed that the glycosides of mono- or diacylglycerol compounds, especially GOPO, are responsible for the anti inflammatory effects of rose hip extracts.

[3] = tested on: polymorphonuclear leucocytes; conditions: WO 03/043613 A1; cited from earlier work
[4] = tested on: mononuclear leucocytes; conditions: WO 03/043613 A1; cited from earlier work

SMILES: CC/C=C\C/C=C\C/C=C\CCCCCCCC(=O)OCC(CO[C@@H]1O[C@H](CO)[C@H](O)[C@H](O)[C@H]1O)OC(=O)CCCCCCC/C=C\C/C=C\C/C=C\CC (stereo partly drawn) [GOPO, 3-β-D-galactopyranosyloxy-2-(octadeca-9Z,12Z,15Z-trienoyloxy)propanyl octadeca-9Z,12Z,15Z-trienoate]
- stability in aqueous solutions [1]: lack stability
- chemiluminescence of human peripheral blood leukocytes [2]: inhibited
- chemiluminescence of polymorphonuclear leucocytes [3]: alleviating
- chemotaxis of mononuclear leucocytes [4]: alleviating
